Columns and labels:
[1] = biological target: T1, PK2 EFE (Pseudomonas savastanoi, UniProt P32021); experiment: succinate production by LC-MS/MS versus 2OG concentration; type: biochemical; design: recombinant from E. coli, His6 tag removed with TEV protease, apoprotein after EDTA/DTT treatment; conditions: no L-Arg (uncoupled decarboxylation), 0.2 mM Fe(II), 0.4 mM L-ascorbate, 25 mM HEPES pH 7.5, 22 °C
[2] = biological target: T1, PK2 EFE; conditions: 1 mM 2OG, 1 mM L-Arg, 0.4 mM Fe(II), 1 mM L-ascorbate, 25 mM HEPES pH 7.5, room temperature

T1 sequence (P32021 whole entry): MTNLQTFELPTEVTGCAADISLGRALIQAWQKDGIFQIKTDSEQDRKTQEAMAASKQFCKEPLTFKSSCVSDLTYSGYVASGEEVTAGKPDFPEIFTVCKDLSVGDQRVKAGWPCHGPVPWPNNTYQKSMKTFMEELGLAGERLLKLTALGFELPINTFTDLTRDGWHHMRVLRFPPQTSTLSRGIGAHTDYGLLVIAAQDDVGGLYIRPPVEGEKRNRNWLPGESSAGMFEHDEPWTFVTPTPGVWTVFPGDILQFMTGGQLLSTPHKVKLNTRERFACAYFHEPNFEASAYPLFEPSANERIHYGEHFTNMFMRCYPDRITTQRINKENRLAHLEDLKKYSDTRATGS

SMILES	succinate production by LC-MS/MS versus 2OG concentration [1]	ethylene by GC and P5C by 2-aminobenzaldehyde assay (partition ratio) [2]
O=C(O)CCC(=O)C(=O)O [2OG]	such an uncoupled reaction occurs in both Pd1 and PK2 versions of EFE	
N=C(N)NCCC[C@H](N)C(=O)O [L-Arg]		we compared the ethylene/P5C partition ratios for PK2 EFE and Pd1 EFE

— article PMC12060275, “Biochemical, Structural, and Conformational Characterization of a Fungal Ethylene-Forming Enzyme” (Biochemistry, 2025)
